Laboratory results taken from US5981525A, “Indole derivatives useful in the treatment of osteoporosis” (SmithKline Beecham Corporation, priority 1995, dated 1999).
Where a name gives a salt, the structure may show the parent alone.

How the values were obtained:
[1] = biological target: bafilomycin-sensitive ATPase; assay: Inhibition of bafilomycin-sensitive ATPase in chicken osteoclasts (ATPase assay, Pi release); type: biochemical; conditions: chicken osteoclast membranes
Procedure: Vesicles were prepared from medullar bone obtained from tibiae and femurs of egg-laying hens which were calcium-starved for at least 15 days. Briefly, bone fragments were scraped with a 24 scalpel blade, suspended in 40 ml of isolation medium (0.2 M sucrose, 50 mM KCl, 10 mM Hepes, 1 mM EGTA, 2 mM dithiotheitrol, pH 7.4) and filtered through a 100 μm pore size nylon mesh. The whole procedure was performed at 4° C. After homogenisation in a potter (20 strokes) in 40 ml of isolation medium an initial centrifugation (6,500×gmax 20 min) was performed to remove mitochondria and lysosomes. The supematant was centrifuged at 100,000×gmax for 1 hr and the pellet was collected in 1 ml of isolation medium, divided into 200 μl aliquots, immediately frozen in liquid nitrogen and stored at -80° C. The protein content was determined using a Biorad colourimetric kit according to Bradford [M. Bradford, Anal. Biochem., 72, 248 (1976)]. For the proton transport assay, 5-10 μl of membranes were used.
Purification of osteoclast membranes. 1 ml of crude microsomal vesicles prepared above were applied (about 0.2 ml per tube ) on the top of a sucrose step-gradient consisting of 3.5 ml of 15%, 30% and 45% (w/w) sucrose in isolation medium and centrifuged at 280,000 gmax for 2 hours (SW 41 Ti rotor). After centrifugation the 30-45% sucrose interfaces were collected, diluted approx. 20-fold in isolation medium and pelletted at 100,000 gmax for 1 hour (SW 28 rotor). The pellet was then resuspended in 1 ml of isolation medium, aliquoted and frozen in liquid N2 and stored at -80° C. until used.
Inhibition of bafilomycin-sensitive ATPase activity was assessed in purified membrane vesicles by measuring the release of inorganic phosphate (Pi) during 30 min of incubation at 37° C. in a 96-well plate either in the presence or in the absence of bafilomycin Al. The reaction medium contained 1 mM ATP, 10 mM HEPES-Tris pH 8,50 mM KCl, 5 uM valinomycin, 5 uM nigericin, 1 mM CDTA-Tris, 100 uM ammonium molybdate, 0.2 M sucrose and membranes (20 ug protein/ml). The reaction was initiated by MgSO4 (8-arm pipette) and stopped, after 30 min, by addition of 4 volumes of the malachite green reagent (96-arm pipette) prepared according to Chan [Anal. Biochem. 157, 375 (1986)]. Absorbance at 650 nm was measured after 2 min using a microplate reader. Results are expressed as μmol (Pi)×mg protein^-1 ×hour^-1 and, for each experiment, represent the mean±sem of triplicates.

osteoclast proton pump = conditions: ruffled membrane vesicles from avian osteoclasts; cited from earlier work
osteoclast cultures = conditions: cited from earlier work

| Structure (SMILES) | IC50 [1] | further results |
| --- | --- | --- |
| CO/C(=C\C=C\c1cc2cc(Cl)ccc2[nH]1)C(=O)NCc1ccc(N)cc1 [Example 37] | 30 µM | – |
| CO/C(=C\C=C\c1cc2cc(Cl)c(Cl)cc2[nH]1)C(=O)Nc1cccnc1 [Example 44, (2Z,4E)-5-(5,6-Dichloro-2-indolyl)-2-methoxy-N-(3-pyridyl)-2,4-pentadienamide] | 0.62 µM | – |
| CO/C(=C\C=C\c1cc2cc(Cl)c(Cl)cc2[nH]1)C(=O)NCCCN(CC(=O)O)CC(=O)O [Example 45, hydrochloride] | 14 µM | – |
| CO/C(=C\C=C\c1cc2cc(Cl)c(Cl)cc2[nH]1)C(=O)N[C@@H]1CN2CCC1CC2 [Example 50, (2Z,4E)-N-[(S)-1-Azabicyclo[2.2.2]octan-3-yl]-5-(5,6-dichloro-2-indolyl)-2-methoxy-2,4-pentadienamide] | 0.62 µM | – |
| CO/C(=C\C=C\c1cc2cc(Cl)c(Cl)cc2[nH]1)C(=O)NC1CC(C)(C)NC(C)(C)C1 [Example 56, (2Z,4E)-5-(5,6-Dichloro-2-indolyl)-2-methoxy-N-[4-(2,2,6,6-tetramethyl)piperidinyl]-2,4-pentadienamide] | 0.07 µM | – |
| CO/C(=C\C=C\c1cc2cc(Cl)c(Cl)cc2[nH]1)C(=O)Nc1ccc(OC)nc1 [Example 57, (2Z,E)-5-(5,6-Dichloro-2-indolyl)-2-methoxy-N-[5-(2-methoxy)pyridyl]-2,4-pentadienamide] | 1.6 µM | – |
| CO/C(=C\C=C\c1cc2cc(Cl)c(Cl)cc2[nH]1)C(=O)NCCCN1CCCCC1C (stereo not shown) [Example 59, (2Z,4E)-5-(5,6-Dichloro-2-indolyl)-2-methoxy-N[3-[1-(2-methyl)piperidin-yl]-propyl]-2,4-pentadienamide] | 0.13 µM | – |
| CO/C(=C\C=C\c1cc2cc(Cl)c(Cl)cc2[nH]1)C(=O)NN1CCN(C)CC1 [Example 60, (2Z,4E)-5-(5,6-Dichloro-2-indolyl)-2-methoxy-N-[1-(4-methylpiperazinyl)]-2,4-pentadienamide] | 0.85 µM | – |
| CO/C(=C\C=C\c1cc2cc(Cl)c(Cl)cc2[nH]1)C(=O)NC1CC2CCC(C1)N2C (stereo not drawn) [Example 66, (2Z,4E)-6-(5,6-dichloro-2-indolyl)-N-[8-methyl-8-azabicyclo[3.2.1]oct-3β-yl]-2-methoxy-2,4-pentadienamide] | 0.1 µM | – |
| CO/C(=C\C=C\c1cc2cc(Cl)c(Cl)cc2[nH]1)C(=O)NC1CCN(C)CC1 [Example 70, (2Z,4E)-5-(5,6-Dichloro-2-indolyl)-2-methoxy-N-[4-(1-methyl)-piperidinyl]-2,4-pentadienamide] | 0.12 µM | – |
| CO/C(=C\C=C\c1cc2cc(Cl)c(Cl)cc2[nH]1)C(=O)Nc1ncnc2[nH]ncc12 [Example 71, (2Z,4E)-5-(5,6-Dichloro-2-indolyl)-2-methoxy-N-(1H-pyrazolo[3,4-d]pyrimidin-4-yl)-2,4-pentadienamide] | 0.53 µM | – |
| CCN1C(=O)C=CC1=O [N-ethylmaleimide] | – | inhibition of proton transport (osteoclast proton pump): inhibited |
| Cc1nc2c(OCc3ccccc3)cccn2c1CC#N [SCH 28080] | – | inhibition of proton transport (osteoclast proton pump): not inhibited |
| CO/C1=C\C(C)=C\[C@@H](C)[C@@H](O)[C@@H](C)C/C(C)=C/C=C/[C@H](OC)[C@@H]([C@@H](C)[C@@H](O)[C@H](C)[C@@]2(O)C[C@@H](O)[C@H](C)[C@@H](C(C)C)O2)OC1=O [bafilomycin A1] | – | inhibition of proton transport (osteoclast proton pump): inhibited; inhibition of bone resorption (osteoclast cultures): inhibit bone resorption |
| COc1ccc2[nH]c([S+]([O-])Cc3ncc(C)c(OC)c3C)nc2c1 (stereo not shown) [omeprazole] | – | inhibition of proton transport (osteoclast proton pump): not inhibited |
| C[C@@H]1O[C@@H](O[C@H]2C[C@@H](O)[C@]3(CO)[C@H]4[C@H](O)C[C@]5(C)[C@@H](C6=CC(=O)OC6)CC[C@]5(O)[C@@H]4CC[C@]3(O)C2)[C@H](O)[C@H](O)[C@H]1O [ouabain] | – | inhibition of proton transport (osteoclast proton pump): not inhibited |
| [Na+].[Na+].[Na+].[O]=[V]([O-])([O-])[O-] [sodium orthovanadate] | – | inhibition of proton transport (osteoclast proton pump): not inhibited |

The remaining compounds from weak to strong by IC50 [1], led by results:

| IC50 [1] | Structure (SMILES) | further results |
| --- | --- | --- |
| 30 µM | CCOC(=O)/C(=C/C=C/c1cc2cc(Cl)ccc2[nH]1)OCC [Example 30, Ethyl(2Z,4E)-5-(5-chloro-2-indolyl)-2-ethoxy-2,4-pentadienoate] | – |
| 22 µM | CO/C(=C\C=C\c1cc2cc(Cl)ccc2[nH]1)C(=O)NCc1cccnc1 [Example 15, (2Z,4E)-5-(5-Chloro-2-indolyl)-2-methoxy-N-(3-pyridylmethyl)-2,4-pentadienamide] | – |
| 17 µM | CO/C(=C\C=C\c1cc2cc(Cl)c(Cl)cc2[nH]1)C(=O)Nc1ncccn1 [Example 65, (2Z,4E)-5-(5,6-Dichloro-2-indolyl)-2-methoxy-N-(2-pyrimidinyl)-2,4-pentadienamide] | – |
| 15 µM | CO/C(=C\C=C\c1cc2cc(Cl)ccc2[nH]1)C(=O)N(Cc1ccccc1)CC(O)CO (stereo not shown) [Example 20, (2Z,4E)-5-(5-Chloro-2-indolyl)-N-2,3-dihydroxypropyl-2-methoxy-N-phenylmethyl-2,4-pentadienamide] | – |
| 7 µM | COC(=O)/C(=C/C=C/c1cc2cc(Cl)ccc2[nH]1)OC [Example 4, Methyl (2Z,4E)-5-(5-chloro-2-indolyl)-2-methoxy-2,4-pentadienoate] | – |
| 4 µM | CO/C(=C\C=C\c1cc2cc(Cl)ccc2[nH]1)C(=O)Nc1cccnc1 [Example 33] | – |
| 4 µM | CO/C(=C\C=C\c1cc2cc(Cl)c(Cl)cc2[nH]1)C(=O)NCCCn1ccnc1 [Example 49, (2Z,4E)-5-(5,6-Dichloro-2-indolyl)-N-[3-(1H-imidazol-1-yl)-propyl]-2-methoxy-2,4-pentadienamide] | – |
| 3 µM | CCN(CC)CCCNC(=O)/C(=C/C=C/c1cc2cc(Cl)ccc2[nH]1)OC [Example 26, (2Z,4E)-5-(5-Chloro-2-indolyl)-N-[3-(diethylamino)-propyl]-2-methoxy-2,4-pentadienamide] | – |
| 1.4 µM | CCN(CCCNC(=O)/C(=C/C=C/c1cc2cc(Cl)c(Cl)cc2[nH]1)OC)Cc1ccccc1 [Example 62] | – |
| 1.3 µM | CO/C(=C\C=C\c1cc2cc(Cl)c(Cl)cc2[nH]1)C(=O)NCCCN1CCN(C)CC1 [Example 67, (2Z,4E)-5-(5,6-Dichloro-2-indolyl)-2-methoxy-N-[3-[1-(4-methyl)piperazinyl]-propyl]-2,4-pentadienamide] | – |
| 1.2 µM | CO/C(=C\C=C\c1cc2cc(Cl)c(Cl)cc2[nH]1)C(=O)NCCN1CCCCC1 [Example 53, (2Z,4E)-5-(5,6-Dichloro-2-indolyl)-N-[2-(1-piperidinyl)-ethyl]-2-methoxy-2,4-pentadienamide] | – |
| 1.1 µM | COC(=O)/C(=C/C=C/c1cc2cc(Cl)c(Cl)cc2[nH]1)OC [Example 6, Methyl (2Z,4E)-5-(5,6-dichloro-2-indolyl)-2-methoxy-2,4-pentadienoate] | – |
| 1.1 µM | CO/C(=C\C=C\c1cc2cc(Cl)c(Cl)cc2[nH]1)C(=O)NCCCN1CCOCC1 [Example 51, (2Z,4E)-5-(5,6-Dichloro-2-indolyl)-N-[3-(morpholino)propyl]-2-methoxy-2,4-pentadienamide] | – |
| 0.59 µM | CCN(CC)CCNC(=O)/C(=C/C=C/c1cc2cc(Cl)c(Cl)cc2[nH]1)OC [Example 46, (2Z,4E)-5-(5,6-Dichloro-2-indolyl)-N-[2-(diethylamino)-ethyl]-2-methoxy-2,4-pentadienamide] | – |
| 0.34 µM | CO/C(=C\C=C\c1cc2cc(Cl)c(Cl)cc2[nH]1)C(=O)NCCC1CCCN1C (stereo not shown) [Example 54, (2Z,4E)-5-(5,6-Dichloro-2-indolyl)-2-methoxy-N-[2-[2-(1-methyl)pyrrolidinyl]ethyl]-2,4-pentadienamide] | – |
| 0.17 µM | CCN(CC)CCCNC(=O)/C(=C/C=C/c1cc2cc(Cl)c(Cl)cc2[nH]1)OC [Example 34, (2Z,4E)-5-(5,6-Dichloro-2-indolyl)-N-[3-(diethylamino)-propyl]-2-methoxy-2,4-pentadienamide] | – |
